Measurements from the supplement of paper PMC5579334.

Experiments:
[1] = tested on: HS-PSS; assay: relative IC50 (inflection point of fitted dose-response curve, CellTox-Green cytotoxicity, 72 h; top asymptote may be below 50%); higher = less potent
Method in brief: (§1)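 MPNST cell lines and primary human Schwann cells were incubated 72 h at 37 °C in 384-well plates holding five 10-fold compound dilutions. CellTox-Green was added before seeding at a final 1:1000 dilution and reported fluorescence from DNA released by disrupted cells. Signals were scaled to vehicle and positive-control wells, and cultures failing plate quality control were dropped. Drug sensitivity score and relative IC50 come from four-parameter logistic fits, with IC50 censored at the top concentration.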

[2] = tested on: HSC1; assay: as above
Method in brief: as §1

[3] = tested on: HSC2; assay: as above
Method in brief: as §1

[4] = tested on: S1507-2; assay: as above
Method in brief: as §1

[5] = tested on: ST8814; assay: as above
Method in brief: as §1

[6] = tested on: STS26T; assay: as above
Method in brief: as §1

[7] = tested on: HS-Sch-2; assay: relative IC50 (inflection point of fitted dose-response curve, CellTiter-Glo viability, 72 h; top asymptote may be below 50% inhibition); higher = less potent
Method in brief: (§2)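 MPNST cell lines and primary human Schwann cells (750–1000 cells per well) went into 384-well plates preprinted with each compound at five concentrations in 10-fold steps. Plates were incubated 72 h at 37 °C, 5% CO2. Viability was read as CellTiter-Glo ATP luminescence, scaled between vehicle and positive-control wells, with duplicates averaged where present. Percent inhibition is at the top concentration; drug sensitivity score and relative IC50 (censored at top concentration) come from four-parameter logistic fits.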

[8] = tested on: HSC1; assay: as above
Method in brief: as §2

[9] = tested on: HSC2; assay: as above
Method in brief: as §2

[10] = tested on: ST8814; assay: as above
Method in brief: as §2

[11] = tested on: STS26T; assay: as above
Method in brief: as §2

[12] = tested on: YST-1; assay: as above
Method in brief: as §2

[13] = tested on: HS-PSS; assay: as above
Method in brief: as §2

Row | SMILES | relative IC50 [1] [µM] | relative IC50 [2] [µM] | relative IC50 [3] [µM] | relative IC50 [4] [µM] | relative IC50 [5] [µM] | relative IC50 [6] [µM] | relative IC50 [7] [µM] | relative IC50 [8] [µM] | relative IC50 [9] [µM] | relative IC50 [10] [µM] | relative IC50 [11] [µM] | relative IC50 [12] [µM] | relative IC50 [13] [µM]
1 | Nc1nc(F)nc2c1ncn2[C@@H]1O[C@H](CO)[C@@H](O)[C@@H]1O [Fludarabine] | > 10 | > 10 | > 10 | > 10 | > 10 | > 10 | 2.2 | 3.61 | 2.72 | > 10 | 1.65 | 3.48 | 
2 | CC(C)n1cnc2c(NCCc3ccc(O)cc3)nc(-c3csc4ccccc34)nc21 [StemRegenin 1] | > 10 | > 10 | > 10 | > 10 | > 10 |  | 3.54 | 3.83 | 2.2 | 2.52 | 3.83 | > 10 | 3.2
3 | O=c1[nH]cc(F)c(=O)[nH]1 [Fluorouracil] | > 10 | > 10 | > 10 | > 10 | > 10 |  | 2.87 | 3.58 | 3.29 | > 10 | 0.907 | 3.28 | 3.57
4 | C=C1C[C@@H]2[C@H](CC[C@]3(C)C(=O)CC[C@@H]23)[C@@]2(C)C=CC(=O)C=C12 [Exemestane] | > 10 | > 10 | > 10 | > 10 | > 10 | > 10 |  | > 10 | > 10 | > 10 | > 10 | > 10 | 1.76
5 | O=C(O)CNC(=O)c1c(O)c2ccccc2n(Cc2ccccc2)c1=O [IOX-2] | > 50 | > 50 | > 50 | > 50 | > 50 | > 50 | 12.5 | > 50 |  | 8.42 |  |  | 10.3
6 | Cc1ccc(C(=O)N(CCCN)[C@@H](c2oc3cc(Cl)ccc3c(=O)c2Cc2ccccc2)C(C)C)cc1 | > 0.1 | > 0.1 | > 0.1 | > 0.1 | > 0.1 | > 0.1 | 0.00166 | > 0.1 | > 0.1 | > 0.1 | > 0.1 | 0.00094 | 0.00129
7 | C[C@]1(c2nc3c(C(N)=O)cccc3[nH]2)CCCN1 [Veliparib] | > 10 | > 10 | > 10 | > 10 | > 10 | > 10 | > 10 |  |  | > 10 | > 10 | 1.16 | 
